In patent US10676747B2, “Methods for improving cognitive function via modulation of quinone reductase 2” (Carmel-Haifa University Economic Corp. Ltd., priority 2014, dated 2020):

Key:
rats [1] = assay: CTA protocol with NaCl: negative taste memory after QR2 inhibitor injection; format: in vivo, rat; details: n=8; for AI compared with vehicle-injected group: CTA with NaCl, Fisher's LSD test; for Aversion index (AI): CTA, 0.5% NaCl, LiCl 0.03M, inhibitor 10 mg/kg i.p. one hour before, mean+/-SEM
Protocol: (§1) Subjects—Adult male Wistar Hola rats (Harlan Laboratories, Jerusalem) within a weight range of 200-300 gr (corresponding to an age of 8 to 12 weeks) were used for this study. They were maintained on a 12 hour light/dark cycle and all experiments were carried out during the light cycle. Additionally, the rats had ad libtum access to food and water unless otherwise indicated. The procedures were performed in strict accordance with the University of Haifa regulations and the US National Institutes of Health guidelines (NIH publication number 8023).
(§2) The vehicle—In all of the experiments in which we utilized pharmacological agents they were prepared in physiological saline. Physiological saline was prepared in house by dissolving NaCl in DDW (0.9% w/v). The physiological saline was injected to the controls in all experiments in which the test group(s) was injected with a pharmacological agent. The same volume of the vehicle was injected as the pharmacological agent.
(§3) QR2 inhibitors—We used two inhibitors of QR2 activity, S29434 and S26695, obtained from Pharmacolgie Moleculaire et Cellulaire, Institut de Recherches Servier. The inhibitors were dissolved in dimethyl sulfoxide (DMSO) and then added to physiological saline. The final concentration of dimethyl sulfoxide in the physiological saline was 5%. These inhibitors were injected prior to the learning process intraperitoneally (i.p.) 10 mg/kg.
(§4) Aversion index—the aversion index is calculated by the following equation [(total water ingested/(novel taste liquid ingested+water ingested))*100].
Conditioned Taste Aversion (CTA)—Two groups of rats were deprived from water for a period of 24 hours. This was followed by 3 days of restriction were the rats received two pipettes each filled with 10 ml of water for 20 minutes each day. […] Forty minutes following the exposure to the novel liquid the rats in the experimental group received an injection of LiCl (prepared in double distilled water (DDW)) (2% bodyweight, intraperitoneally (i.p.)) and those in the control received an injection of physiological saline (2% bodyweight, i.p.).
M&M—We used three groups in this experiment, all of which were subjected to three days of water restriction. Following the three day water restriction period one group was injected with the vehicle; one group with S29434; one group with S26695. Then, one hour after the injections, all three groups were subjected to the CTA protocol: we gave them access to two pipettes containing 10 ml of 0.5% w/v NaCl each (a novel taste) for 20 minutes (in this experiment NaCl as the novel taste was used since CTA conducted with NaCl leads to a lower AI which prevents a ceiling effect from occurring and allows us to evaluate if the inhibitors generate an increase in learning and therefore a higher AI). […]

rats [2] = assay: LI-CTA protocol: positive taste memory after QR2 inhibitor injection; format: in vivo, rat; details: n=8; for Aversion index (AI): 0.1% saccharin, inhibitor 10 mg/kg i.p. one hour before pre-exposure, choice test three days after LiCl, mean+/-SEM; for AI compared with vehicle-injected groups (CTA and LI-CTA): Fisher's LSD post-hoc test
Protocol: as §1, §2, §3, §4
Conditioned Taste Aversion (CTA)—Two groups of rats were deprived from water for a period of 24 hours. This was followed by 3 days of restriction were the rats received two pipettes each filled with 10 ml of water for 20 minutes each day. On the fourth day both groups received two pipettes each filled with 10 ml of an unfamiliar tasting liquid, either saccharine (0.1% w/v) or NaCl (0.3% w/v), for 20 minutes. Forty minutes following the exposure to the novel liquid the rats in the experimental group received an injection of LiCl (prepared in double distilled water (DDW)) (2% bodyweight, intraperitoneally (i.p.)) and those in the control received an injection of physiological saline (2% bodyweight, i.p.).
LI-CTA learning paradigm. This paradigm presents the animal with a novel taste. The animal is then given 48 hours during which it will form a memory of the taste and will consider the taste to be a safe taste. The animal will then be presented with the taste again and then injected with LiCl in order to induce malaise. Normally when an animal is presented with a taste and then has malaise induced (CTA) the animal will form a very high aversion to that taste. […]

QR2 = biological target: T1, QR2 (Homo sapiens, UniProt P16083); details: literature statement; cited from earlier work
T1 sequence (P16083 1-231): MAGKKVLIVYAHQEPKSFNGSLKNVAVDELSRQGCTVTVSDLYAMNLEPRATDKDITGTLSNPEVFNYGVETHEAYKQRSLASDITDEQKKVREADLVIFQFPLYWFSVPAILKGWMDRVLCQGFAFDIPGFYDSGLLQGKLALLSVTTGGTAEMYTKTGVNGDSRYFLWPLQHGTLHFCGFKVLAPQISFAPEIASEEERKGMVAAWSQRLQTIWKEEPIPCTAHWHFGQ

CNS(=O)(=O)c1ccc2cccc(CCNC(C)=O)c2c1 [S26695, N-[2-(7-methylaminosulfonyl-1-naphthyl)ethyl]acetamide]
AI compared with vehicle-injected group (rats [1]): significantly higher AI
Aversion index (AI) (rats [1]): 86.84+/−2.17
Aversion index (AI) (rats [2]): 68.44+/−4.44
AI compared with vehicle-injected groups (CTA and LI-CTA) (rats [2]): significantly lower AI

COc1ccc2[nH]cc(CCNC(C)=O)c2c1 [Melatonin]
QR2 inhibition (QR2): inhibits QR2 activity

Oc1ccc(/C=C/c2cc(O)cc(O)c2)cc1 [resveratrol]
QR2 inhibition (QR2): efficiently inhibits QR2

COc1ccc2c(n1)c(CCNC(=O)c1ccco1)c1n2Cc2cccnc2-1 [S29434, N-[2-(2-methoxy-6h-dipyrido[2,3-α:3,2-e]pyrrolizin-11-yl)ethyl]-2-furamide]
AI compared with vehicle-injected group (rats [1]): significantly higher AI
Aversion index (AI) (rats [1]): 92%
Aversion index (AI) (rats [2]): 56.16+/−6.15
AI compared with vehicle-injected groups (CTA and LI-CTA) (rats [2]): significantly lower AI
